Tests used:
[1] = target: Activin receptor type-1-like (Homo sapiens) (UniProt P37023); conditions: Compound concentration 1000.0 nM
[2] = target: RAC-alpha serine/threonine-protein kinase (Homo sapiens) (UniProt P31749); conditions: Compound concentration 1000.0 nM
[3] = target: RAC-beta serine/threonine-protein kinase (Homo sapiens) (UniProt P31751); conditions: Compound concentration 1000.0 nM
[4] = target: ALK tyrosine kinase receptor (Homo sapiens) (UniProt Q9UM73); conditions: Compound concentration 1000.0 nM
[5] = target: 5'-AMP-activated protein kinase catalytic subunit alpha-2 (Homo sapiens) (UniProt P54646); conditions: Compound concentration 1000.0 nM
[6] = target: Tyrosine-protein kinase receptor UFO (Homo sapiens) (UniProt P30530); conditions: Compound concentration 1000.0 nM
[7] = target: Serine/threonine-protein kinase BRSK2 (Homo sapiens) (UniProt Q8IWQ3); conditions: Compound concentration 1000.0 nM
[8] = target: Cyclin-dependent kinase 11A (Homo sapiens) (UniProt Q9UQ88); conditions: Compound concentration 1000.0 nM
[9] = target: Cyclin-dependent kinase 5 (Homo sapiens) (UniProt Q00535); conditions: Compound concentration 1000.0 nM
[10] = target: Dual specificity tyrosine-phosphorylation-regulated kinase 1B (Homo sapiens) (UniProt Q9Y463); conditions: Compound concentration 1000.0 nM
[11] = test system: Epidermal growth factor receptor (Homo sapiens), P00533 [UNDEFINED MUTATION]; conditions: Compound concentration 1000.0 nM
[12] = test system: Epidermal growth factor receptor (Homo sapiens), P00533 [G719S]; conditions: Compound concentration 1000.0 nM
[13] = test system: Epidermal growth factor receptor (Homo sapiens), P00533 [UNDEFINED MUTATION]; conditions: Compound concentration 1000.0 nM; remark: listed apart in the source
[14] = target: Ephrin type-A receptor 1 (Homo sapiens) (UniProt P21709); conditions: Compound concentration 1000.0 nM
[15] = target: Ephrin type-A receptor 2 (Homo sapiens) (UniProt P29317); conditions: Compound concentration 1000.0 nM
[16] = target: Ephrin type-A receptor 6 (Homo sapiens) (UniProt Q9UF33); conditions: Compound concentration 1000.0 nM
[17] = target: Mitogen-activated protein kinase 6 (Homo sapiens) (UniProt Q16659); conditions: Compound concentration 1000.0 nM
[18] = target: Tyrosine-protein kinase Fer (Homo sapiens) (UniProt P16591); conditions: Compound concentration 1000.0 nM
[19] = target: Tyrosine-protein kinase Fgr (Homo sapiens) (UniProt P09769); conditions: Compound concentration 1000.0 nM
[20] = test system: Receptor-type tyrosine-protein kinase FLT3 (Homo sapiens), P36888 [UNDEFINED MUTATION]; conditions: Compound concentration 1000.0 nM
[21] = target: Tyrosine-protein kinase HCK (Homo sapiens) (UniProt P08631); conditions: Compound concentration 1000.0 nM
[22] = target: Mitogen-activated protein kinase kinase kinase kinase 1 (Homo sapiens) (UniProt Q92918); conditions: Compound concentration 1000.0 nM
[23] = target: Mitogen-activated protein kinase kinase kinase kinase 3 (Homo sapiens) (UniProt Q8IVH8); conditions: Compound concentration 1000.0 nM
[24] = target: Dual specificity mitogen-activated protein kinase kinase 2 (Homo sapiens) (UniProt P36507); conditions: Compound concentration 1000.0 nM
[25] = target: Tyrosine-protein kinase Mer (Homo sapiens) (UniProt Q12866); conditions: Compound concentration 1000.0 nM
[26] = target: Myosin light chain kinase (Homo sapiens) (UniProt Q32MK0); conditions: Compound concentration 1000.0 nM
[27] = target: Macrophage-stimulating protein receptor (Homo sapiens) (UniProt Q04912); conditions: Compound concentration 1000.0 nM
[28] = target: 3-phosphoinositide-dependent protein kinase 1 (Homo sapiens) (UniProt O15530); conditions: Compound concentration 1000.0 nM
[29] = test system: Phosphatidylinositol 4,5-bisphosphate 3-kinase catalytic subunit alpha isoform (Homo sapiens), P42336 [H1047Y]; conditions: Compound concentration 1000.0 nM
[30] = target: Serine/threonine-protein kinase pim-1 (Homo sapiens) (UniProt P11309); conditions: Compound concentration 1000.0 nM
[31] = target: Serine/threonine-protein kinase N1 (Homo sapiens) (UniProt Q16512); conditions: Compound concentration 1000.0 nM
[32] = target: Serine/threonine-protein kinase N2 (Homo sapiens) (UniProt Q16513); conditions: Compound concentration 1000.0 nM
[33] = target: Serine/threonine-protein kinase PLK4 (Homo sapiens) (UniProt O00444); conditions: Compound concentration 1000.0 nM
[34] = target: Serine/threonine-protein kinase D1 (Homo sapiens) (UniProt Q15139); conditions: Compound concentration 1000.0 nM
[35] = target: cAMP-dependent protein kinase catalytic subunit PRKX (Homo sapiens) (UniProt P51817); conditions: Compound concentration 1000.0 nM
[36] = target: Serine/threonine-protein kinase RIO3 (Homo sapiens) (UniProt O14730); conditions: Compound concentration 1000.0 nM
[37] = target: Rho-associated protein kinase 1 (Homo sapiens) (UniProt Q13464); conditions: Compound concentration 1000.0 nM
[38] = target: Ribosomal protein S6 kinase alpha-5 (Homo sapiens) (UniProt O75582); conditions: Compound concentration 1000.0 nM
[39] = target: NUAK family SNF1-like kinase 2 (Homo sapiens) (UniProt Q9H093); conditions: Compound concentration 1000.0 nM
[40] = target: Serine/threonine-protein kinase 35 (Homo sapiens) (UniProt Q8TDR2); conditions: Compound concentration 1000.0 nM
[41] = target: Serine/threonine-protein kinase tousled-like 2 (Homo sapiens) (UniProt Q86UE8); conditions: Compound concentration 1000.0 nM
[42] = target: Serine/threonine-protein kinase WNK2 (Homo sapiens) (UniProt Q9Y3S1); conditions: Compound concentration 1000.0 nM
[43] = target: 5-hydroxytryptamine receptor 2B (Homo sapiens) (UniProt P41595); conditions: Compound concentration 10.0 uM
[44] = target: Alpha-1A adrenergic receptor (Homo sapiens) (UniProt P35348); conditions: Compound concentration 10.0 uM
[45] = target: Alpha-2A adrenergic receptor (Homo sapiens) (UniProt P08913); conditions: Compound concentration 10.0 uM

Chain of Activin receptor type-1-like (Homo sapiens) (P37023 whole entry): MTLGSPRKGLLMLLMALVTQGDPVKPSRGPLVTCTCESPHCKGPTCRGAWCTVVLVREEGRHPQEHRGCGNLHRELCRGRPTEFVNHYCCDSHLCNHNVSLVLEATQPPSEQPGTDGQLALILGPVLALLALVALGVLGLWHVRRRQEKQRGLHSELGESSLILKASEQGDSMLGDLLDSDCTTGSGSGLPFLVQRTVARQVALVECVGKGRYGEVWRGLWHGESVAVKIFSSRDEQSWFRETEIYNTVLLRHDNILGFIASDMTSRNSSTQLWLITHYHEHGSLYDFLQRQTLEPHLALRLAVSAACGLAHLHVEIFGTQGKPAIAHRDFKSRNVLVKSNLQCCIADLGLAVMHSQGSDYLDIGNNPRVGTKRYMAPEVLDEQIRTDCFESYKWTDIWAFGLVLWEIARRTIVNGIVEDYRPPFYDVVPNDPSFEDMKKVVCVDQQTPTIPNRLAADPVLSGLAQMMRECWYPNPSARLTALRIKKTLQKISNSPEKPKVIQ
Chain of Ephrin type-A receptor 2 (Homo sapiens) (P29317 whole entry): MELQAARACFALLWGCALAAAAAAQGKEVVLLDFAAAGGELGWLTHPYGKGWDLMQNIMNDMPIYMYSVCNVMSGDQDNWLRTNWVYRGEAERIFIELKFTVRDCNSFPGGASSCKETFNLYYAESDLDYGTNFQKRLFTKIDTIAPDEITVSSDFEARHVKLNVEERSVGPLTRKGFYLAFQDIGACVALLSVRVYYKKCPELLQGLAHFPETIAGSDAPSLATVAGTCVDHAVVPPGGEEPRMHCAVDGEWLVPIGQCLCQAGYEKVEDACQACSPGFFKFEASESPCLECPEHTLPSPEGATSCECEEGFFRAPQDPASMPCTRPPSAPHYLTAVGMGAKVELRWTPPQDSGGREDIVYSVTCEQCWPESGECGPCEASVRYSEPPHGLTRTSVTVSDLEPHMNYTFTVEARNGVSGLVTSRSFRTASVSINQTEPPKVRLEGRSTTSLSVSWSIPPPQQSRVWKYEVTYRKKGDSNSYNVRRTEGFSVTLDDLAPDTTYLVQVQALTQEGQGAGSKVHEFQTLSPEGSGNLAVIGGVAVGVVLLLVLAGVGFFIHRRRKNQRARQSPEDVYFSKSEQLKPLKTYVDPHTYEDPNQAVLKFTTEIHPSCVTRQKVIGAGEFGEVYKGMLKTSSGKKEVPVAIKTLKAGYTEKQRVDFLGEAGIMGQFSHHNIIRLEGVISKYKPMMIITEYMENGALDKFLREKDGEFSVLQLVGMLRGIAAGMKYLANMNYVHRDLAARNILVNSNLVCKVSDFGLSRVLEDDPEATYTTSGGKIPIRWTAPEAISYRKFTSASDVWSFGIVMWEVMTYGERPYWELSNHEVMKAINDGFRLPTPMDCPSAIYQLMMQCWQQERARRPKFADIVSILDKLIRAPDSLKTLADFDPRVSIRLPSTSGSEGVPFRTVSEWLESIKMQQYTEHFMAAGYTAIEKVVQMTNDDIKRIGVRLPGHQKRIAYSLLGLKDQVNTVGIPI
Chain of Serine/threonine-protein kinase N2 (Homo sapiens) (Q16513 whole entry, looked up): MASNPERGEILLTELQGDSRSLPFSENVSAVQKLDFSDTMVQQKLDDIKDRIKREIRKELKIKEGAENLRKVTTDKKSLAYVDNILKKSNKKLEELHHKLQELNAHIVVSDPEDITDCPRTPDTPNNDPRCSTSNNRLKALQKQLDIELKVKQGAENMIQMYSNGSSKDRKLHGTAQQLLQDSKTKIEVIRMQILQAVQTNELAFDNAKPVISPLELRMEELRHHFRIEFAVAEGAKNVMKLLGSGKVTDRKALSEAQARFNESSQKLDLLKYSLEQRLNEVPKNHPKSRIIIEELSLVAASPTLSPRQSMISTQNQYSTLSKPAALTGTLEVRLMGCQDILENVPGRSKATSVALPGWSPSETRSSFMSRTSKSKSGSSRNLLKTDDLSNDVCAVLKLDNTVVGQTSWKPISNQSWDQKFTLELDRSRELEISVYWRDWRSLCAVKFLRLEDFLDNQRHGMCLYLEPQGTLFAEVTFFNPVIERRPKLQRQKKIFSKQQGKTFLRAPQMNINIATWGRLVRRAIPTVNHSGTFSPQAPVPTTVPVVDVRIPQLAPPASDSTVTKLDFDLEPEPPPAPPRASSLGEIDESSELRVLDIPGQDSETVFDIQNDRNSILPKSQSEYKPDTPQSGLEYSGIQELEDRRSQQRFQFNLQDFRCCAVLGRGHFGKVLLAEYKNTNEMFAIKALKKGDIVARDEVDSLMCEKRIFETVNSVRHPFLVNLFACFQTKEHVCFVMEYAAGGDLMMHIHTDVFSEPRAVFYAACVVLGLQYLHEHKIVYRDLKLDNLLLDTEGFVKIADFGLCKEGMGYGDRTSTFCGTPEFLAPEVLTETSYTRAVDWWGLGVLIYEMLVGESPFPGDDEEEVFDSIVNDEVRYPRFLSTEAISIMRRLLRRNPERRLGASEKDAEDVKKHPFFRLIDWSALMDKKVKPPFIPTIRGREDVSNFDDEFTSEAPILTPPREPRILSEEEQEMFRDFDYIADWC
Chain of Serine/threonine-protein kinase RIO3 (Homo sapiens) (O14730 whole entry): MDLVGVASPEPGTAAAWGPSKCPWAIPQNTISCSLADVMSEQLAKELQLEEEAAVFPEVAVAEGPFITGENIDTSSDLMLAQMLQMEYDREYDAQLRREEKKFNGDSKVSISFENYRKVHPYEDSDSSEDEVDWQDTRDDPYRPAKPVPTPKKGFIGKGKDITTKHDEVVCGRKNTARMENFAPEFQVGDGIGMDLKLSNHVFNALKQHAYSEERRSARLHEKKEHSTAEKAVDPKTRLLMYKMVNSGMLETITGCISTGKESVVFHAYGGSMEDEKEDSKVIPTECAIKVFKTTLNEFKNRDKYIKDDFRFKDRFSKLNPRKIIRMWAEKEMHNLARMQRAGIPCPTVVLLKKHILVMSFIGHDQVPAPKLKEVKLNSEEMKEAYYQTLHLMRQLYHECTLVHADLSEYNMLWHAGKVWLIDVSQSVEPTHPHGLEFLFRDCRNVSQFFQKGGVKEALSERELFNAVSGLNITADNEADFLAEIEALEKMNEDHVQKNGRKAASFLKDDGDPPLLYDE
Chain of Tyrosine-protein kinase receptor UFO (Homo sapiens) (P30530 whole entry): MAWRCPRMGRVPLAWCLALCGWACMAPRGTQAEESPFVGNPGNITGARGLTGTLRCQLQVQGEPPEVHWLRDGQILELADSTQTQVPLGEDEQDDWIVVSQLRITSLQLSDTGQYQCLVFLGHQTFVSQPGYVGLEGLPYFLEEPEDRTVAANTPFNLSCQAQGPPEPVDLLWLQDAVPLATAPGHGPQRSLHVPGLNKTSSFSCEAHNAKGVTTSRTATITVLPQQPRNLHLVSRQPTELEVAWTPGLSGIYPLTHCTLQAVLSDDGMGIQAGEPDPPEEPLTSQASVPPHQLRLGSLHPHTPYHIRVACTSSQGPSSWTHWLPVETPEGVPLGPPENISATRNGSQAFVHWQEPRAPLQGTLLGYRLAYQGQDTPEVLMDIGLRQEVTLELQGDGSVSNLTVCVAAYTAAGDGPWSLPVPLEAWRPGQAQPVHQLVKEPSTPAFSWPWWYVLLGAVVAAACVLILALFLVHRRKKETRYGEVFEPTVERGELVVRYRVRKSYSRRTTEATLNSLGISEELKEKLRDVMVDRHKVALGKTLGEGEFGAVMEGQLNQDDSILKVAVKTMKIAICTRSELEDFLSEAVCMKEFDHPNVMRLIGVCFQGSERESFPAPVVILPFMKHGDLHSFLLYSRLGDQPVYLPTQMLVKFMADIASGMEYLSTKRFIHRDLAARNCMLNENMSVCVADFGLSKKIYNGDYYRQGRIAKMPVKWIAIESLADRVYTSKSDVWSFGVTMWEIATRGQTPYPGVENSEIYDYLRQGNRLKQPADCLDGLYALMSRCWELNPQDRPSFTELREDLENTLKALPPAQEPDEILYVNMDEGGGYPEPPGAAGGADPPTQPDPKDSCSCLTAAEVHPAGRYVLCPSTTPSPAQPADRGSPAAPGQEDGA
Chain of 5-hydroxytryptamine receptor 2B (Homo sapiens) (P41595 whole entry): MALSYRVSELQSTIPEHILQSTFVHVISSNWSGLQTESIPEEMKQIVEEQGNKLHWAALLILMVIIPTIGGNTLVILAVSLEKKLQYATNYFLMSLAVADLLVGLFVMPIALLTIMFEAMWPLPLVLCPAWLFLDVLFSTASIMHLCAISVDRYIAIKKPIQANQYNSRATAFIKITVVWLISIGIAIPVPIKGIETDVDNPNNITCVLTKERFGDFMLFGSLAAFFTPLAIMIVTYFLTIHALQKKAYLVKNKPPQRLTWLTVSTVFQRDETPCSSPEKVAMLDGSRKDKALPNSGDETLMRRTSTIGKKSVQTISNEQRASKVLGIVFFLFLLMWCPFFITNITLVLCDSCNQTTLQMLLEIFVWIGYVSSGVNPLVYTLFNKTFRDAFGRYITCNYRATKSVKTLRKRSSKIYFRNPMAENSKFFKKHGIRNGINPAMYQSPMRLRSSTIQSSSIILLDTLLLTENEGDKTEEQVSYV
Chain of Tyrosine-protein kinase HCK (Homo sapiens) (P08631 2-526 limits assumed): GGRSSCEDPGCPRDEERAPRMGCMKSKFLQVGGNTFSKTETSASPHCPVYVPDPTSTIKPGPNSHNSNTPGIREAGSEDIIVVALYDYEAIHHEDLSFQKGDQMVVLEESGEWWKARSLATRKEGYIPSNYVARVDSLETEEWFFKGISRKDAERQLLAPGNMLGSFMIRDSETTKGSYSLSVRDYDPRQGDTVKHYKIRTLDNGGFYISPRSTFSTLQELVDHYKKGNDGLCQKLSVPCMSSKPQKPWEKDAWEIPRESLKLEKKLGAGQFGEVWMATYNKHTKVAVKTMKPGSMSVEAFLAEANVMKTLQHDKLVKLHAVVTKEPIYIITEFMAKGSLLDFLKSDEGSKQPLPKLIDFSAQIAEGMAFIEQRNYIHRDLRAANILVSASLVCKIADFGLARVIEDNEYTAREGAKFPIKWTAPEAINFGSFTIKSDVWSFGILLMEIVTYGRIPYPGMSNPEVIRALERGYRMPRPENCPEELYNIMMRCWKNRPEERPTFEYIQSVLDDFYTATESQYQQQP

`COc1ccc2c(O[C@@H]3C[C@H]4C(=O)N[C@]5(C(=O)O)CC5/C=C\CCCCC[C@H](NC(=O)OC5CCCC5)C(=O)N4C3)cc(-c3csc(NC(=O)C(C)C)n3)nc2c1C` (stereo not given in full) [BI 1230] was tested, and the residual activity [1] was 97%, the residual activity [2] was 100% and the residual activity [3] was 89%. It also gave a residual activity [4] of 74%, a residual activity [5] of 87% and a residual activity [6] of 97%. The residual activity [7] was 100%, the residual activity [8] was 99% and the residual activity [9] was 97%. The residual activity [10] was 74%, the residual activity [11] was 98% and the residual activity [12] was 76%. The residual activity [13] was 81%, the residual activity [14] was 88% and the residual activity [15] was 80%. The residual activity [16] was 100%, the residual activity [17] was 93% and the residual activity [18] was 100%. It also gave a residual activity [19] of 100%, a residual activity [20] of 97% and a residual activity [21] of 100%. For the same compound, the residual activity [22] was 100%, the residual activity [23] was 100% and the residual activity [24] was 77%. It also gave a residual activity [25] of 70%, a residual activity [26] of 100% and a residual activity [27] of 100%. For the same compound, the residual activity [28] was 99%, the residual activity [29] was 100% and the residual activity [30] was 97%. The residual activity [31] was 100%, the residual activity [32] was 67% and the residual activity [33] was 77%. For the same compound, the residual activity [34] was 89%, the residual activity [35] was 86% and the residual activity [36] was 100%. For the same compound, the residual activity [37] was 98%, the residual activity [38] was 100% and the residual activity [39] was 91%. For the same compound, the residual activity [40] was 100%, the residual activity [41] was 100% and the residual activity [42] was 87%. It also gave an inhibition [43] of 0.15%, an inhibition [44] of 1.41% and an inhibition [45] of 15.3%.
`O=C(N[C@H]1CCCCC/C=C\C2C[C@@]2(C(=O)O)NC(=O)[C@@H]2C[C@@H](Oc3ccncc3)CN2C1=O)OC1CCCC1` (stereo not given in full) [BI 1675] gave a residual activity [1] of 84%, a residual activity [2] of 100% and a residual activity [3] of 85%. The residual activity [4] was 100%, the residual activity [5] was 71% and the residual activity [6] was 95%. For the same compound, the residual activity [7] was 100%, the residual activity [8] was 88% and the residual activity [9] was 77%. It also gave a residual activity [10] of 46%, a residual activity [11] of 78% and a residual activity [12] of 63%. For the same compound, the residual activity [13] was 85%, the residual activity [14] was 90% and the residual activity [15] was 71%. It also gave a residual activity [16] of 100%, a residual activity [17] of 92% and a residual activity [18] of 100%. The residual activity [19] was 100%, the residual activity [20] was 100% and the residual activity [21] was 100%. The residual activity [22] was 93%, the residual activity [23] was 100% and the residual activity [24] was 87%. The residual activity [25] was 64%, the residual activity [26] was 75% and the residual activity [27] was 97%. For the same compound, the residual activity [28] was 92%, the residual activity [29] was 100% and the residual activity [30] was 100%. The residual activity [31] was 100%, the residual activity [32] was 75% and the residual activity [33] was 88%. The residual activity [34] was 96%, the residual activity [35] was 80% and the residual activity [36] was 100%. The residual activity [37] was 100%, the residual activity [38] was 78% and the residual activity [39] was 100%. The residual activity [40] was 100%, the residual activity [41] was 100% and the residual activity [42] was 100%. For the same compound, the inhibition [43] was 1.85%, the inhibition [44] was 25.7% and the inhibition [45] was 0.78%.

Reference: ChEMBL document CHEMBL4507284, “Data for DCP probe BI-1230” (2021)
